From US20090053378A1, “Sweetener Compositions Having Enhanced Sweetness and Improved Temporal and/or Flavor Profiles” (THE COCA-COLA COMPANY, priority 2007, published 2009)

How the values were obtained:
[1] = Sweetness enhancement tasting of 2-hydroxybenzoic acid derivatives in fructose solution; format: in vivo; design: key: NSE: No Significant Effect; conditions: 5% fructose, roughly neutral pH; 5-9 scale (5, 7.5, 9% fructose references)
Protocol: (§1) The hydroxybenzoic acid derivatives were tasted by themselves in water at a concentration of 3 mM prior to tasting with sucrose, glucose, or fructose to determine enhancement activities. After it was determined that the hydroxybenzoic acid derivatives themselves would contribute no sweetness, they were added to solutions with; 5% fructose, 9% glucose and 6% sucrose. These solutions were adjusted to roughly neutral pH using dilute NaOH solution. The sweetness of the fructose, glucose, and sucrose solutions were evaluated both without and with the hydroxybenzoic acid derivatives using independent sweetness intensity scales for sucrose, fructose, and glucose which were scaled according to references provided for each sweetener, Thus, for sucrose, sweetness references provided were 6, 8, and 10% sucrose and the sweetness intensities of unknown samples were scaled on this 6-10 scale. For fructose, 5, 7.5, and 9% fructose references were provided and the sweetness intensities of unknown samples were scaled on this 5-9 scale. For glucose, 9, 10.5, and 12% glucose references were provided and the sweetness intensities of unknown samples were scaled on this 9-12 scale.

[2] = Sweetness enhancement tasting of 2-hydroxybenzoic acid derivatives in sucrose solution; format: in vivo; design: key: NSE: No Significant Effect; conditions: 6% sucrose, roughly neutral pH; 6-10 scale (6, 8, 10% sucrose references)
Protocol: as §1

[3] = Sweetness enhancement tasting of 2-hydroxybenzoic acid derivatives in glucose solution; format: in vivo; design: key: NSE: No Significant Effect; conditions: 9% glucose, roughly neutral pH; 9-12 scale (9, 10.5, 12% glucose references)
Protocol: as §1

[4] = Rate of dissolution of rebaudioside A forms in water; format: physicochemical

Compound | Fructose sweetness rating, without => with the hydroxybenzoic acid derivative [1] | Sucrose sweetness rating, without => with the hydroxybenzoic acid derivative [2] | Glucose sweetness rating, without => with the hydroxybenzoic acid derivative [3] | Rate of dissolution in H2O at 25° C. ([4]; in 60 minutes) | Rate of dissolution in H2O at 25° C. ([4]; in 5 minutes)
COc1cccc(C(=O)O)c1O [compound 1] | NSE | NSE | NSE | – | –
COc1ccc(C(=O)O)c(O)c1 [compound 2] | NSE | NSE | NSE | – | –
COc1ccc(O)c(C(=O)O)c1 [compound 3] | NSE | NSE | NSE | – | –
COc1cccc(O)c1C(=O)O [compound 4] | NSE | NSE | NSE | – | –
O=C(O)c1c(O)cccc1O [compound 8] | – | NSE | – | – | –
Cc1ccc(C(=O)O)c(O)c1 [compound 11] | NSE | NSE | NSE | – | –
Cc1ccc(O)c(C(=O)O)c1 [compound 12] | NSE | NSE | NSE | – | –
CCOc1ccc(C(=O)O)c(O)c1 [compound 14] | NSE | NSE | NSE | – | –
O=C(O)c1cccc([N+](=O)[O-])c1O [compound 18] | NSE | NSE | NSE | – | –
O=C(O)c1cc([N+](=O)[O-])ccc1O [compound 20] | NSE | NSE | – | – | –
O=C(O)c1cc(F)ccc1O [compound 23] | NSE | NSE | NSE | – | –
O=C(O)c1c(O)cccc1F [compound 24] | NSE | NSE | NSE | – | –
Cc1c(O)ccc(C(=O)O)c1O [compound 25] | NSE | NSE | NSE | – | –
O=C(O)c1ccc(O)c(O)c1O [compound 26] | NSE | NSE | NSE | – | –
Nc1cc(C(=O)O)c(O)c(S(=O)(=O)O)c1 [compound 27] | NSE | NSE | NSE | – | –
Nc1cccc(C(=O)O)c1O [compound 28] | NSE | NSE | NSE | – | –
Nc1ccc(C(=O)O)c(O)c1 [compound 29] | NSE | – | – | – | –

Compound | Fructose sweetness rating, without => with the hydroxybenzoic acid derivative [1] | Sucrose sweetness rating, without => with the hydroxybenzoic acid derivative [2] | Glucose sweetness rating, without => with the hydroxybenzoic acid derivative [3] | Rate of dissolution in H2O at 25° C. ([4]; in 60 minutes) | Rate of dissolution in H2O at 25° C. ([4]; in 5 minutes)
Nc1ccc(O)c(C(=O)O)c1 [compound 30] | NSE | NSE | NSE | – | –
Cc1cc(C)c(O)c(C(=O)O)c1 [compound 31] | NSE | NSE | NSE | – | –
O=Cc1ccc(O)c(C(=O)O)c1 [compound 32] | NSE | NSE | NSE | – | –
O=C(O)c1ccc(O)c(C(=O)O)c1 [compound 33] | NSE | NSE | NSE | – | –
CCCOc1ccc(C(=O)O)c(O)c1 [compound 34] | NSE | NSE | NSE | – | –
O=C(O)c1ccc(OCc2ccccc2)cc1O [compound 35] | NSE | NSE | NSE | – | –
O=C(O)c1ccc(OCCCc2ccccc2)cc1O [compound 36] | NSE | NSE | NSE | – | –
COC(=O)COc1ccc(C(=O)O)c(O)c1 [compound 37] | NSE | NSE | NSE | – | –
O=C(O)COc1ccc(C(=O)O)c(O)c1 [compound 38] | NSE | NSE | NSE | – | –
O=C(O)c1ccc(OCCO)cc1O [compound 39] | NSE | NSE | NSE | – | –
O=C(O)c1ccc(OCCCCO)cc1O [compound 40] | NSE | NSE | NSE | – | –
NC(=O)COc1ccc(C(=O)O)c(O)c1 [compound 41] | NSE | NSE | NSE | – | –
rebaudioside A [Form 1] | – | – | – | Very low (<0.2% | –
rebaudioside A [Form 2] | – | – | – | – | Intermediate (<30%
rebaudioside A [Form 3] | – | – | – | – | High (>30%
rebaudioside A [Form 4] | – | – | – | – | High (>35.0%
